Data from patent US20250090437A1, “COSMETIC COMPOUNDING AGENT, COSMETIC AND PRODUCTION METHOD THEREOF” (MIYOSHI OIL & FAT CO., LTD., priority 2019, published 2025).

Experiments:
[1] = Water retention property and adherability with respect to healthy hair; parameters: species or system human
[2] = Sensory evaluation on healthy hair after using organic ammonium salt; parameters: species or system human; settings: healthy hair, 80 wt % aqueous solution
Method: (§1) Here, an 80 wt % aqueous solution(s) of each of the compounds B11, B12, B23, B26 and B27 (content in terms of anhydride in the cases of the compounds B11, B12 and B23) were prepared and used as samples. Next, one minute was spent in evenly applying 10.0 g of each sample to a bundle of the healthy hairs weighing about 10 g, using a brush; the bundle of the healthy hairs was then left for 5 min. After leaving it for 5 min, the bundle of the healthy hairs was rinsed with a hot water of 40° C. for 30 sec, and evaluated was a finger-combing capability at the time of performing washing. The hair bundle that had been rinsed was then dried with a towel and further subjected to air drying for a day, followed by evaluating items such as flexibility, finger-combing capability, texture, elasticity/resilience (feeling by bare hands), volume increase (visual evaluation), cohesiveness, moist feeling, surface smoothness, non-stickiness (feeling by bare hands) and gloss (visual evaluation), from the perspective of superiority or inferiority to a test hair bundle(s) uncoated with the sample.

[3] = Sensory evaluation on damaged hair after using organic ammonium salt; parameters: species or system human; settings: damaged hair, 80 wt % aqueous solution
Method: as §1, with “damaged” for “healthy”, “as” for “as flexibility, finger-combing capability, texture,”, “hands),” for “hands), volume increase (visual evaluation),”, “cohesiveness,” for “cohesiveness, moist feeling,”, “smoothness” for “smoothness, non-stickiness (feeling by bare hands)”, “non-waviness,” for “gloss (visual evaluation),”

[4] = Sensory evaluation on damaged hair after using shampoo agent containing organic ammonium salt; parameters: species or system human; settings: shampoo agent containing the compound; treated 10 times
Method: Next, the mixture was cooled to a temperature of 30° C. or lower, and a purified water of an evaporated amount was then added thereto so that the whole hair treatment composition would be 100% by mass, followed by uniformly mixing them so as to obtain a hair treatment composition(s). The pH level of the hair treatment composition was adjusted to pH 6.0 by adding a citric acid or sodium hydroxide.
The damaged hair was repeatedly treated 10 times in a similar manner as 3-1; evaluated were a cohesiveness of the hair, surface smoothness of the hair and waviness of the hair after performing air drying.

[5] = Affinity to hair (contact angle); settings: 50 wt % aqueous solution; condition B (hair iron, 160° C.)
[6] = Water confinement property test (barrier property); format: physicochemical; settings: 80 wt % aqueous solution, 0.01 mL/cm^2 on filter paper, 40° C. and 25% RH, 24 hours
[7] = Solubility of active ingredient (gallic acid) in aqueous solution of the compound; settings: in 1.8 g compound + 8.2 g ion-exchange water
[8] = Solubility of active ingredient (glutamic acid) in aqueous solution of the compound; settings: in 1.8 g compound + 8.2 g ion-exchange water

OCC(O)CO [Compound A52, glycerin, reference compound]
Post-test moisture rate ([1]; healthy hair immersed 60 min in 80 wt % aqueous solution, after 24 hours at 40° C., 35 to 40% RH, pre-test 7.6%): 5.3% | Compound adhesion rate ([1]; healthy hair immersed 60 min in 80 wt % aqueous solution, listed as B26): 1.0% | Rate of reduction in moisture ([1]; healthy hair, 80 wt % aqueous solution, 24 hours at 40° C., 35 to 40% RH): 30% | After air drying: Cohesiveness of hair [2]: Δ~X | After air drying: Elasticity/Resilience [2]: Δ~X | After air drying: Finger-combing capability [2]: Δ~X | After air drying: Flexibility [2]: Δ~X | After air drying: Gloss of hair [2]: Δ~X | After air drying: Moist feeling [2]: Δ~X | After air drying: Non-stickiness of hair surface [2]: Δ~X | After air drying: Smoothness of hair surface [2]: Δ~X | After air drying: Texture [2]: Δ~X | After air drying: Volume increase [2]: Δ~X | When washing: Finger-combing capability ([2]; versus uncoated hair bundle): ◯ | After air drying: Cohesiveness of hair [3]: Δ~X | After air drying: Elasticity/Resilience [3]: Δ~X | After air drying: Smoothness of hair surface [3]: Δ~X | After air drying: Suppression of hair waviness [3]: Δ~X | When washing: Finger-combing capability [3]: Δ~X | Sensory evaluation of damaged hair after shampoo agent (cohesiveness, surface smoothness, waviness) [4]: inferior surface smoothness | Contact angle of water droplet on treated hair [5]: not indifferent from that of the untreated product | Water evaporation inhibition rate [6]: 16.2% | Amount of dissolution Gallic acid [7]: 0.08 g | Amount of dissolution Glutamic acid [8]: <0.08 g
